Assay results reported in paper PMC3921447, “Homologous and heterologous desensitization of guanylyl cyclase-B signaling in GH3 somatolactotropes” (Cell and Tissue Research, 2013).

Legend:
GC-B [1] = biological target: T1, GC-B (Rattus norvegicus, UniProt P16067); experiment: Effect of protein phosphatase inhibitors on rapid homologous desensitization of CNP-stimulated cGMP accumulation in GH3 cells; assay type: cell-based; settings: 100 nM CNP, 1 mM IBMX; 30 min pre-treatment with 100 nM OA, 1 nM cypermethrin or 1 mM Na3VO4; control = CNP alone; n = 3
T1 construct: rapid homologous desensitization of endogenous GC-B receptors in GH3 cells; endogenous in cells; host or cells: GH3 rat somatolactotrope cells
T1 sequence (P16067 17-1047): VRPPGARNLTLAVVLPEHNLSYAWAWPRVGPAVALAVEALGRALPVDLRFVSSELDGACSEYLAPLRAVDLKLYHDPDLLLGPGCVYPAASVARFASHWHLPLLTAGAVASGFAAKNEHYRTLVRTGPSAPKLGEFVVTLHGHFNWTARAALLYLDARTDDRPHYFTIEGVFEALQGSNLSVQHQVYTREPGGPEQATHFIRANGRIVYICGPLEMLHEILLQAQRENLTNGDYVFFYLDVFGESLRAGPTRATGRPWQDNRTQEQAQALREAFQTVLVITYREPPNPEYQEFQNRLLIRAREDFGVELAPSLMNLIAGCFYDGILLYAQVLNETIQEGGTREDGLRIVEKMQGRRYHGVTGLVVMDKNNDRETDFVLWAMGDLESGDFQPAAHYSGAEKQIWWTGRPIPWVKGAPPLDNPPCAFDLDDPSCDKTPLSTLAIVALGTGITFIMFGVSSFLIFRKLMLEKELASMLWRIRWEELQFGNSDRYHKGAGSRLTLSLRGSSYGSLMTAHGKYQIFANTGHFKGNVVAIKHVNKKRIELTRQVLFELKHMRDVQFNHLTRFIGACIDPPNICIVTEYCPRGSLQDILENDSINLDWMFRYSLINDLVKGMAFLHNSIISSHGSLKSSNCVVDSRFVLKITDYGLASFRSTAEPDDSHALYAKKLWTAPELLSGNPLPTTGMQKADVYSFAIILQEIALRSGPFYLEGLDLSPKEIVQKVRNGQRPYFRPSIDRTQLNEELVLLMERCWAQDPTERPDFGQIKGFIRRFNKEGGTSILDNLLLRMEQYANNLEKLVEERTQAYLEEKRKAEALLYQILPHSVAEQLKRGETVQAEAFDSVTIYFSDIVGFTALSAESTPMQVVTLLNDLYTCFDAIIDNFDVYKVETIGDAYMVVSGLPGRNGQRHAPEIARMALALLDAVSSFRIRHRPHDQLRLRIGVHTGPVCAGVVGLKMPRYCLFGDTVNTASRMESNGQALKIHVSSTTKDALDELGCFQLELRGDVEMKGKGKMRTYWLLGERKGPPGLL
Procedure: Fig. 2 Rapid homologous desensitization of CNP-dependent but not ANP-dependent cGMP accumulation in GH3 cells. Cells were treated with PSS containing either (a) 100 nM CNP or (b) 100 nM ANP for 0–15 min in the presence of 1 mM IBMX.
Similar short time-courses were performed, except that some cells were pre-treated with 100 nM okadaic acid (OA, a PP2A inhibitor), 1 nM cypermethrin (a PP2B inhibitor), or 1 mM sodium orthovanadate (Na3VO4, a protein tyrosine phosphatase inhibitor) for 30 min prior to CNP treatment (Fig. 2c).

GC-B [2] = biological target: T1, GC-B; experiment: Agonist-induced GC-B internalization by confocal immunofluorescence in GH3 cells; assay type: cell-based; settings: 100 nM CNP, 0-4 h; n = 3; Fig. 5a-c
Procedure: GH3 cells were mounted on poly-L-lysine-coated coverslips and treated with either 0 or 100nM ANP or CNP in PSS during the indicated time points. Following treatment, cells were fixed with 4 % (w/v) formaldehyde for 10 min at room temperature and permeabilized with buffer (1 % [v/v] Tween-20 in 50 ml phosphate-buffered saline [PBS]) before incubation for 10 min at room temperature. Cells were then blocked with […] sodium azide dissolved in 92 % PBS, 3 % FCS and 5 % Tween-20 (v/v) for 20 min at room temperature, washed, then exposed to 1:200 diluted primary antibody solution (GC-A or GC-B, plus 0.1 % FCS and 0.1 % Tween-20) for 16 h at 4 °C. […] Following three PBS washes and a final 5-min PBS immersion at room temperature, the slides were mounted in Vectorshield (Vector Laboratories, Peterborough, UK) on standard VWR (VWR International, Leicestershire, UK) slides ready for analysis. A Leica SPS confocal scanning laser microscope was used to capture the staining, which was analyzed with Leica SPS software (Leica Microsystems, Milton Keynes, UK). […]
Fig. 5 Lack of ligand-dependent internalization of GC-B or GC-A in GH3 somatolactotrope cells. […] GC-A and GC-B immunoreactivity was detected by using Alexa488-conjugated secondary antibodies (green), whereas Alexa635-conjugated phalloidin was used to detect the actin cytoskeleton (red). […]

## CC[C@H](C)[C@@H]1NC(=O)[C@H](CCCNC(=N)N)NC(=O)[C@H](CC(=O)O)NC(=O)[C@H](CC(C)C)NC(=O)[C@H](CCCCN)NC(=O)[C@H](CC(C)C)NC(=O)CNC(=O)[C@H](Cc2ccccc2)NC(=O)[C@@H](NC(=O)CNC(=O)[C@H](CCCCN)NC(=O)[C@H](CO)NC(=O)[C@H](CC(C)C)NC(=O)CN)CSSC[C@@H](C(=O)O)NC(=O)CNC(=O)[C@H](CC(C)C)NC(=O)CNC(=O)[C@H](CO)NC(=O)[C@H](CCSC)NC(=O)[C@H](CO)NC(=O)CNC1=O [CNP, C-type natriuretic peptide]
GC-B [1]
  rate of cGMP accumulation from 5 to 15 min (desensitization): underwent desensitization as shown by the failure to maintain the initial rate of cGMP accumulation
GC-B [2]
  GC-B internalization: did not demonstrate any observable GC-B or GC-A internalization
